Legend:
[1] = tested on: recombinant NL4-3 virus (nef section replaced with Renilla luciferase gene) in MT-2 cells; test: HIV cell culture assay (antiviral activity, luciferase readout); assay type: cell-based; conditions: Renilla, NL43, MT-2 cells infected for 4-5 days with recombinant NL4-3 Renilla luciferase virus
Outline: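 Compound activity was measured as reduction of luciferase in MT-2 cells infected for 4-5 days with serially diluted compound present. EC50 values were calculated with the median effect equation.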

[2] = Compound cytotoxicity, XTT-based colorimetric assay; assay type: cell-based; conditions: human; uninfected MT2 cells, day 4, XTT; read-out: CC50
Outline: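 Follows the antiviral assay procedure, but with uninfected MT2 cells. On day 4, cell viability is measured by XTT-based colorimetry, giving CC50 values.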

Compound: COCCCn1nc(NS(C)(=O)=O)c2c(Cl)ccc(-n3c([C@H](Cc4cc(F)cc(F)c4)NC(=O)Cn4nc(C(F)F)c5c4C(F)(F)[C@@H]4C[C@H]54)nc4nc(C5CCC(F)(F)CC5)cc(NCCCN5CCCCC5)c4c3=O)c21 (atropisomer, axis not shown; (P)) [Example 519, N-[(1S)-1-[(3P)-3-[4-chloro-3-methanesulfonamido-1-(3-methoxypropyl)-1H-indazol-7-yl]-7-(4,4-difluorocyclohexyl)-4-oxo-5-{[3-(piperidin-1-yl)propyl]amino}-3H,4H-pyrido[2,3-d]pyrimidin-2-yl]-2-(3,5-difluorophenyl)ethyl]-2-[(2S,4R)-9-(difluoromethyl)-5,5-difluoro-7,8-diazatricyclo[4.3.0.0^2,^4]nona-1(6),8-dien-7-yl]acetamide]
- EC50 [1]: 0.024 nM
- CC50 at 4 days [2]: > 20 nM

Compound: Cc1cc(C2CCC(F)(F)CC2)nc2nc([C@H](Cc3cc(F)cc(F)c3)NC(=O)Cn3nc(C(F)F)c4c3C(F)(F)[C@@H]3C[C@H]43)n(-c3ccc(Cl)c4c(NS(C)(=O)=O)nn(CCN5C[C@@H](C)O[C@@H](C)C5)c34)c(=O)c12 (atropisomer, axis not shown; (P)) [Example 159, N-[(1S)-1-[(3P)-3-(4-chloro-1-{2-[(2R,6S)-2,6-dimethylmorpholin-4-yl]ethyl}-3-methanesulfonamido-1H-indazol-7-yl)-7-(4,4-difluorocyclohexyl)-5-methyl-4-oxo-3H,4H-pyrido[2,3-d]pyrimidin-2-yl]-2-(3,5-difluorophenyl)ethyl]-2-[(2S,4R)-9-(difluoromethyl)-5,5-difluoro-7,8-diazatricyclo[4.3.0.0^2,4]nona-1(6),8-dien-7-yl]acetamide]
- EC50 [1]: 0.017 nM
- CC50 at 4 days [2]: > 50 nM

Compound: COCCCn1nc(NS(C)(=O)=O)c2c(Cl)ccc(-n3c([C@H](Cc4cc(F)cc(F)c4)NC(=O)Cn4nc(C(F)F)c5c4C(F)(F)[C@@H]4C[C@H]54)nc4nc(C5CCC(F)(F)CC5)cc(NCCC#N)c4c3=O)c21 (atropisomer, axis not shown; (P)) [Example 433, N-[(1S)-1-[(3P)-3-[4-chloro-3-methanesulfonamido-1-(3-methoxypropyl)-1H-indazol-7-yl]-5-[(2-cyanoethyl)amino]-7-(4,4-difluorocyclohexyl)-4-oxo-3H,4H-pyrido[2,3-d]pyrimidin-2-yl]-2-(3,5-difluorophenyl)ethyl]-2-[(2S,4R)-9-(difluoromethyl)-5,5-difluoro-7,8-diazatricyclo[4.3.0.0^2,^4]nona-1(6),8-dien-7-yl]acetamide]
- EC50 [1]: 0.037 nM
- CC50 at 4 days [2]: > 20 nM

Compound: Cc1cc(C2(CF)CCC(F)(F)CC2)nc2nc([C@H](Cc3cc(F)cc(F)c3)NC(=O)Cn3nc(C(F)F)c4c3C(F)(F)[C@@H]3C[C@H]43)n(-c3ccc(Cl)c4c(NS(C)(=O)=O)nn(CCN5C[C@H](F)C[C@H](F)C5)c34)c(=O)c12 (atropisomer, axis not shown; (P)) [Example 556, N-[(1S)-1-[(3P)-3-(4-chloro-1-{2-[(3R,5S)-3,5-difluoropiperidin-1-yl]ethyl}-3-methanesulfonamido-1H-indazol-7-yl)-7-[4,4-difluoro-1-(fluoromethyl)cyclohexyl]-5-methyl-4-oxo-3H,4H-pyrido[2,3-d]pyrimidin-2-yl]-2-(3,5-difluorophenyl)ethyl]-2-[(2S,4R)-9-(difluoromethyl)-5,5-difluoro-7,8-diazatricyclo[4.3.0.0^2,^4]nona-1(6),8-dien-7-yl]acetamide]
- EC50 [1]: 0.014 nM
- CC50 at 4 days [2]: > 20 nM

Compound: COCCCn1nc(NS(C)(=O)=O)c2c(Cl)ccc(-n3c([C@H](Cc4cc(F)cc(F)c4)NC(=O)Cn4nc(C(F)F)c5c4C(F)(F)[C@@H]4C[C@H]54)nc4nc(C5(F)CCC(F)(F)CC5)cc(CN5C[C@@H](C)O[C@@H](C)C5)c4c3=O)c21 (atropisomer, axis not shown; (P)) [Example 600, N-[(1S)-1-[(3P)-3-[4-chloro-3-methanesulfonamido-1-(3-methoxypropyl)-1H-indazol-7-yl]-5-{[(2R,6S)-2,6-dimethylmorpholin-4-yl]methyl}-4-oxo-7-(1,4,4-trifluorocyclohexyl)-3H,4H-pyrido[2,3-d]pyrimidin-2-yl]-2-(3,5-difluorophenyl)ethyl]-2-[(2S,4R)-9-(difluoromethyl)-5,5-difluoro-7,8-diazatricyclo[4.3.0.0^2,^4]nona-1(6),8-dien-7-yl]acetamide]
- EC50 [1]: 0.008 nM
- CC50 at 4 days [2]: > 20 nM

Compound: CCc1cc(C2CCC(F)(F)CC2)nc2nc([C@H](Cc3cc(F)cc(F)c3)NC(=O)Cn3nc(C(F)F)c4c3C[C@H]3C[C@@H]43)n(-c3ccc(Cl)c4c(NS(C)(=O)=O)nn(CCOC)c34)c(=O)c12 (relative stereo) [Example 636, N-[(1S)-1-[(3P)-3-[4-chloro-3-methanesulfonamido-1-(2-methoxyethyl)-1H-indazol-7-yl]-7-(4,4-difluorocyclohexyl)-5-ethyl-4-oxo-3H,4H-pyrido[2,3-d]pyrimidin-2-yl]-2-(3,5-difluorophenyl)ethyl]-2-[(2R*,4R*)-9-(difluoromethyl)-7,8-diazatricyclo[4.3.0.0^2,^4]nona-1(6),8-dien-7-yl]acetamide]
- EC50 [1]: 0.015 nM
- CC50 at 4 days [2]: > 50 nM

Compound: CS(=O)(=O)Nc1nn(CCN2CC(F)(F)C2)c2c(-n3c([C@H](Cc4cc(F)cc(F)c4)NC(=O)Cn4nc(C(F)F)c5c4C(F)(F)[C@@H]4C[C@H]54)nc4nc(C5CCC(F)(F)CC5)ccc4c3=O)ccc(Cl)c12 (atropisomer, axis not shown; (P)) [Example 48, N-[(1S)-1-[(3P)-3-{4-chloro-1-[2-(3,3-difluoroazetidin-1-yl)ethyl]-3-methanesulfonamido-1H-indazol-7-yl}-7-(4,4-difluorocyclohexyl)-4-oxo-3H,4H-pyrido[2,3-d]pyrimidin-2-yl]-2-(3,5-difluorophenyl)ethyl]-2-[(2S,4R)-9-(difluoromethyl)-5,5-difluoro-7,8-diazatricyclo[4.3.0.0^2,^4]nona-1(6),8-dien-7-yl]acetamide]
- EC50 [1]: 0.018 nM
- CC50 at 4 days [2]: > 50 nM

Compound: COCCCn1nc(NS(C)(=O)=O)c2c(Cl)ccc(-n3c([C@H](Cc4cc(F)cc(F)c4)NC(=O)Cn4nc(C(F)F)c5c4C(F)(F)[C@@H]4C[C@H]54)nc4nc(C5CCC(F)(F)CC5)cc(NCCN5CCOCC5(C)C)c4c3=O)c21 (atropisomer, axis not shown; (P)) [Example 477, N-[(1S)-1-[(3P)-3-[4-chloro-3-methanesulfonamido-1-(3-methoxypropyl)-1H-indazol-7-yl]-7-(4,4-difluorocyclohexyl)-5-{[2-(3,3-dimethylmorpholin-4-yl)ethyl]amino}-4-oxo-3H,4H-pyrido[2,3-d]pyrimidin-2-yl]-2-(3,5-difluorophenyl)ethyl]-2-[(2S,4R)-9-(difluoromethyl)-5,5-difluoro-7,8-diazatricyclo[4.3.0.0^2,^4]nona-1(6),8-dien-7-yl]acetamide]
- EC50 [1]: 0.013 nM
- CC50 at 4 days [2]: > 20 nM

Compound: CC1(F)CCN(CCn2nc(NS(C)(=O)=O)c3c(Cl)ccc(-n4c([C@H](Cc5cc(F)cc(F)c5)NC(=O)Cn5nc(C(F)F)c6c5C(F)(F)[C@@H]5C[C@H]65)nc5nc(C6CCC(F)(F)CC6)ccc5c4=O)c32)C1 (stereo partly drawn) [Example 211, N-[(1S)-1-[(3P)-3-{4-chloro-1-[2-(3-fluoro-3-methylpyrrolidin-1-yl)ethyl]-3-methanesulfonamido-1H-indazol-7-yl}-7-(4,4-difluorocyclohexyl)-4-oxo-3H,4H-pyrido[2,3-d]pyrimidin-2-yl]-2-(3,5-difluorophenyl)ethyl]-2-[(2S,4R)-9-(difluoromethyl)-5,5-difluoro-7,8-diazatricyclo[4.3.0.0^2,^4]nona-1(6),8-dien-7-yl]acetamide]
- EC50 [1]: 0.012 nM
- CC50 at 4 days [2]: > 50 nM

Compound: COCCOCCn1nc(NS(C)(=O)=O)c2c(Cl)ccc(-n3c([C@H](Cc4cc(F)cc(F)c4)NC(=O)Cn4nc(C5CC5)c5c4C[C@@H]4C[C@H]54)nc4nc(C5CCC(F)(F)CC5)ccc4c3=O)c21 (atropisomer, axis not shown; (P)) [Example 237, N-[(1S)-1-[(3P)-3-{4-chloro-3-methanesulfonamido-1-[2-(2-methoxyethoxy)ethyl]-1H-indazol-7-yl}-7-(4,4-difluorocyclohexyl)-4-oxo-3H,4H-pyrido[2,3-d]pyrimidin-2-yl]-2-(3,5-difluorophenyl)ethyl]-2-[(2S,4S)-9-cyclopropyl-7,8-diazatricyclo[4.3.0.0^2,^4]nona-1(6),8-dien-7-yl]acetamide]
- EC50 [1]: 0.006 nM
- CC50 at 4 days [2]: > 50 nM

Compound: CS(=O)(=O)Nc1nn(CCOCC(F)(F)F)c2c(-n3c([C@H](Cc4cc(F)cc(F)c4)NC(=O)Cn4nc(C(F)F)c5c4C(F)(F)[C@@H]4C[C@H]54)nc4nc(C5CCC(F)(F)CC5)cc(C(F)F)c4c3=O)ccc(Cl)c12 (atropisomer, axis not shown; (P)) [Example 155, N-[(1S)-1-[(3P)-3-{4-chloro-3-methanesulfonamido-1-[2-(2,2,2-trifluoroethoxy)ethyl]-1H-indazol-7-yl}-7-(4,4-difluorocyclohexyl)-5-(difluoromethyl)-4-oxo-3H,4H-pyrido[2,3-d]pyrimidin-2-yl]-2-(3,5-difluorophenyl)ethyl]-2-[(2S,4R)-9-(difluoromethyl)-5,5-difluoro-7,8-diazatricyclo[4.3.0.0^2,^4]nona-1(6),8-dien-7-yl]acetamide]
- EC50 [1]: 0.027 nM
- CC50 at 4 days [2]: > 50 nM

From patent US12594276B2, “Inhibitors of human immunodeficiency virus replication” (ViiV Healthcare UK (No.5) Limited, priority 2024, dated 2026)
